# Results from US9789110B2, “Diacylglycerol acyltransferase 2 inhibitors” (PFIZER INC., priority 2014, dated 2017).
# Key:
# [1] = target: DGAT2 in primary human hepatocytes (Homo sapiens (Human), UniProt Q96PD7); experiment: IC50 for DGAT2 inhibitors in human hepatocytes, [14C]-glycerol incorporation into lipids; type: cell-based; details: average; cryopreserved human hepatocytes; selective DGAT1 inhibitor 3 μM in all wells; 3 hour incubation; read-out: IC50 in primary human hepatocytes
# Method: For evaluation of the effects of DGAT2 inhibitors in a cell-based setting, cryopreserved human hepatocytes (Lot QOC and NON, Celsis, Chicago, Ill.) were thawed and plated onto type I collagen-coated plates according to the manufacturer's instructions. After 24 hours overnight recovery period, the cells were overlayed with media containing 250 μg/ml Matrigel (BD Biosciences, San Jose, Calif.). The following day, media was aspirated and replaced with serum-free Williams Media E (Life Technologies, Grand Island, N.Y.) containing 400 μM sodium dodecanoate (Sigma-Aldrich, St. Louis, Mo.). Forty minutes later, DGAT2 inhibitors (prepared as 100× stocks in 25% DMSO, 75% Williams' Media E) were added to the desired final concentration. […] After a 20 minute preincubation, 0.2 μCi [1,3-^14C]-glycerol glycerol (American Radio Chemicals, St. Louis, Mo.) was added to each well and mixed by gentle pipetting prior to a 3 hour incubation. At this point, media was aspirated and the cells were lysed in isopropyl alcohol: tetrahydrofuran (9:1) prior to centrifugation at 3000 rpm for 5 minutes. Radiolabeled lipids were resolved using a 2-solvent system by thin layer chromatography using standard technique (solvent 1 contained ethyl acetate:isopropyl alcohol:chloroform:methanol:0.25% potassium chloride in water (100:100:100:40.2:36.1, v/v/v/v) and solvent 2 contained hexane: diethyl ether: acetic acid (70:27:3, v/v/v)). After separation, radiolabeled lipids were visualized using a Molecular Dynamics' PhosphorImager system. The half maximal inhibitory concentrations (IC50 values) were determined using GraphPad Prism (GraphPad Software, Inc., La Jolla, Calif.).
# Table 4 below provides IC50 values for the Examples in accordance with the above-described assay. Results were reported as average IC50 values, low and high IC50 range (95% confidence interval).
# hDGAT2 = hDGAT2 (Homo sapiens (Human), UniProt Q96PD7); experiment: In vitro DGAT2 assay, hDGAT2 membrane fraction, [14C]decanoyl-CoA scintillation readout; type: biochemical; details: geometric mean; FLAG-hDGAT2 membrane fraction; 2 h preincubation; read-out: IC50 for inhibition of DGAT2
# hDGAT2, sequence (Q96PD7 whole entry): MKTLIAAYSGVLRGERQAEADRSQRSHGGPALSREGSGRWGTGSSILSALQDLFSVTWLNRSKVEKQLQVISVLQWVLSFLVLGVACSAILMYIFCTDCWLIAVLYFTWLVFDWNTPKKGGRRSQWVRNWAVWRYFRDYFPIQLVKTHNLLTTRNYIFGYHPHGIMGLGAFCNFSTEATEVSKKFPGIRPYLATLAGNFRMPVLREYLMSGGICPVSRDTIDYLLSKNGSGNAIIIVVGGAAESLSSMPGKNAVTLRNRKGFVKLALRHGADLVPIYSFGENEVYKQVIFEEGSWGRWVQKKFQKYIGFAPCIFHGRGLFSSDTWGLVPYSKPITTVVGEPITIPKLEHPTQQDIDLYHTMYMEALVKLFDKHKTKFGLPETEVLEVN
# Method: Recombinant baculovirus for the FLAG-tagged hDGAT2 was generated in SF9 insect cells using Bac-to-Bac baculovirus expression system (Invitrogen) according to the manufacturer's protocol. For the expression of hDGAT2, SF9 cells (20 L) grown in Sf90011 media were infected with hDGAT2 baculovirus at a multiplicity of infection of 1 in a Wave Bioreactor System 20/50P wave bag (GE Healthcare). After 40 hours of infection, the cells were then harvested by centrifugation at 5,000×g. The cell pellets were washed by resuspending in phosphate buffered saline (PBS) and collected by centrifugation at 5,000×g. The cell paste was flash frozen in liquid N2 and stored at −80° C. until needed. All operations below were at 4° C. unless otherwise noted. The cells were resuspended in lysis buffer (50 mM Tris-HCl, pH 8.0, 250 mM sucrose) including 1 mM ethylenediaminetetraacetic acid (EDTA) and the complete protease inhibitor cocktail (Roche Diagnostics) at a ratio of 3 ml buffer per 1 g cell paste. The cells were lysed by dounce homogenizer. The cell debris was removed by centrifugation at 1,000×g for 20 min, and the supernatant was centrifuged at 100,000×g for 1 hour. The resulting pellet was rinsed three times by filling ultracentrifuge tubes to the top with ice cold PBS before decanting. The washed pellet was resuspended with gentle stirring for 1 hour in lysis buffer containing 8 mM 3-[(3-cholamidopropyl)dimethylammonio]-1-propanesulfonate (CHAPS) at a ratio of 1 mL buffer per 1 g of original cell paste and centrifuged again at 100,000×g for 1 hour. The resulting supernatant was aliquotted, flash frozen in liquid N2, and stored at −80° C. until use.
# For determination of IC50 values, the reactions were carried out in 384-well white Polyplates (Perkin Elmer) in a total volume of 20 μL. To […] compounds dissolved in 100% DMSO and spotted at the bottom of each well, 5 μL of 0.04% bovine serum albumin (BSA) (fatty acid free, Sigma Aldrich) was added and the mixture was incubated at room temperature for 20 minutes. To this mixture, 10 μL of hDGAT2 membrane fraction (0.01 mg/mL) diluted in 100 mM Hepes-NaOH, pH 7.4, 20 mM MgCl2 containing 200 nM methyl arachidonyl fluorophosphonate (Cayman Chemical; dried from ethyl acetate stock solution under argon gas and dissolved in DMSO as 5 mM stock) was added. After this mixture was preincubated at room temperature for 2 hours, DGAT2 reactions were initiated by the addition of 4 μL of substrates containing 30 μM [1-^14C]decanoyl-CoA (custom-synthesized by Perkin Elmer, 50 mCi/mmol) and 125 μM 1,2-didecanoyl-sn-glycerol (Avanti Polar Lipids) dissolved in 12.5% acetone. The reaction mixtures were incubated at room temperature for 40 min and the reactions were stopped by addition of 5 μL of 1% H3PO4. After the addition of 45 μL MicroScint-E (Perkin-Elmer), plates were sealed with Top Seal-A covers (Perkin-Elmer) and phase partitioning of substrates and products was achieved using a HT-91100 microplate orbital shaker (Big Bear Automation, Santa Clara, Calif.). Plates were centrifuged at 2,000×g for 1 min in an Allegra 6R Centrifuge (Beckman Coulter) and then were sealed again with fresh covers before reading in a 1450 Microbeta Wallac Trilux Scintillation Counter (Perkin Elmer). DGAT2 activity was measured by quantifying the generated product [^14C]tridecanoylglycerol in the upper organic phase.
# Inhibitors were tested at eleven different concentrations to generate IC50 values for each compound.
# DGAT2 in primary human hepatocytes, sequence (Q96PD7 whole entry): as above
IC50 [1] [nM],IC50 (hDGAT2) [nM],Structure (SMILES)
11.5,123,"CCOc1ccccc1O[C@@H]1CCCN(c2ncc(C(=O)NCc3cc(OC)cc(C(=O)O)c3)cn2)C1 [Example 2, (R)-3-((2-(3-(2-ethoxyphenoxy)piperidin-1-yl)pyrimidine-5-carboxamido)methyl)-5-methoxybenzoic acid]"
8.4,66.6,"CCOc1ccccc1O[C@@H]1CCCN(c2ncc(C(=O)N[C@H]3CCC[C@H]3C(=O)O)cc2F)C1 [Example 5, (1R,2S)-2-(6-((R)-3-(2-ethoxyphenoxy)piperidin-1-yl)-5-fluoronicotinamido)cyclopentane-1-carboxylic acid]"
45.7,156,"CCOc1ccccc1O[C@@H]1CCCN(c2ncc(C(=O)NCc3cccc(CC(=O)O)c3)cn2)C1 [Example 18.2, (R)-2-(3-((2-(3-(2-ethoxyphenoxy)piperidin-1-yl)pyrimidine-5-carboxamido)methyl)phenyl)acetic acid]"
19.8,182,"CCNC(=O)c1cnc(N2CCC[C@@H](Oc3ccc(C#N)cc3OCC)C2)nc1 [Example 17, (R)-2-(3-(4-cyano-2-ethoxyphenoxy)piperidin-1-yl)-N-ethylpyrimidine-5-carboxamide]"
